Laboratory results as given in patent US20180354920A1, “SUBSTITUTED OXADIAZOLES FOR COMBATING PHYTOPATHOGENIC FUNGI” (BASF SE, priority 2015, published 2018).

**Q.** With `CCC(=O)Nc1ccc(-c2noc(C(F)(F)F)n2)cn1` [Ex-1, N-[5-[5-(trifluoromethyl)-1,2,4-oxadiazol-3-yl]-2-pyridyl]propanamide] as the compound, how does the melting point read?
**A.** 130 °C
